Marks after values point to notes of the source that are not given here.
Assay: Fatty acid concentration and composition of plasma lipid subfractions (GC) of Compound A-treated DIO mice
Type: in vivo, mouse
Conditions: DIO mouse plasma, 30 mg/kg, GC
Protocol: FIG. 16(b) provides fatty acid composition of total plasma and each of the 4 plasma lipid subfractions of vehicle treated (WT) and 30 mg/kg Compound A-treated WT DIO mice (WT+A). (a-b) n=3 samples per group (each sample pooled from 2 mice). (a) Data are shown as minimum to maximum. t-test *P<0.05, **P<0.01, ***P<0.001.

[1] = Phospholipids, mean % composition
[2] = Total lipids, mean % composition
[3] = Triglycerides, mean % composition

## COc1ccn2c(=O)c(-c3cnn(CC(F)(F)C(F)(F)F)c3)c(C(F)(F)F)nc2c1 [Compound A, 8-methoxy-3-(1-(2,2,3,3,3-pentafluoropropyl)-1H-pyrazol-4-yl)-2-(trifluoromethyl)-4H-pyrido[1,2-a]pyrimidin-4-one]
[1]
  C16:1n7t composition, Phospholipids: 0.05%
  C18:0 composition, Phospholipids: 14.4*** %
  C18:1n9 composition, Phospholipids: 12.3** %
  C18:1t composition, Phospholipids: 0.18%
  C18:2n6 composition, Phospholipids: 19.0%
  C18:2n6t composition, Phospholipids: 0.22** %
  C18:3n3 composition, Phospholipids: 0.05%
  C18:3n6 composition, Phospholipids: 0.2* %
  C20:0 composition, Phospholipids: 0.07* %
  C20:1n9 composition, Phospholipids: 0.28%
  C20:2n6 composition, Phospholipids: 0.43* %
  C20:3n6 composition, Phospholipids: 18.2*** %
  C20:4n6 composition, Phospholipids: 1.49*** %
  C20:5n3 composition, Phospholipids: 0.06* %
  C22:0 composition, Phospholipids: 0.08%
  C22:4n6 composition, Phospholipids: 0.10*** %
  C22:5n3 composition, Phospholipids: 0.61%
  C22:5n6 composition, Phospholipids: 0.09** %
  C22:6n3 composition, Phospholipids: 3.33*** %
  C24:0 composition, Phospholipids: 0.04%
  C24:1n9 composition, Phospholipids: 0.16%
Total lipids, mean
  C14:0 concentration, Total: 7.7 µg/mL
  C16:0 concentration, Total: 635 µg/mL
  C16:1n7 concentration, Total: 41.4 µg/mL
  C18:0 concentration, Total: 285** μg mL^−1
  C18:1n9 concentration, Total: 478 µg/mL
  C18:1t concentration, Total: 3.6 µg/mL
  C18:2n6 concentration, Total: 870 µg/mL
  C18:2n6t concentration, Total: 6.0 µg/mL
  C18:3n3 concentration, Total: 5.9** μg mL^−1
  C18:3n6 concentration, Total: 23.3** μg mL^−1
  C20:0 concentration, Total: 2.3** μg mL^−1
  C20:1n9 concentration, Total: 8.4 µg/mL
  C20:3n6 concentration, Total: 465*** μg mL^−1
  C20:4n6 concentration, Total: 92.3** μg mL^−1
  C20:5n3 concentration, Total: 2.7** μg mL^−1
  C22:0 concentration, Total: 3.3** μg mL^−1
  C22:4n6 concentration, Total: 2.1*** μg mL^−1
  C22:5n3 concentration, Total: 2.8*** μg mL^−1
  C22:5n6 concentration, Total: 2.4*** μg mL^−1
  C22:6n3 concentration, Total: 98.5** μg mL^−1
  C24:1n9 concentration, Total: 6.9 µg/mL
  Total fatty acids concentration, Total: 3058* μg mL^−1
[2]
  C14:0 composition, Total: 0.25%
  C16:0 composition, Total: 20.8%
  C16:1n7 composition, Total: 1.35%
  C16:1n7t composition, Total: 0.1%
  C18:0 composition, Total: 9.3%
  C18:1n9 composition, Total: 15.7%
  C18:1t composition, Total: 0.12%
  C18:2n6 composition, Total: 28.5%
  C18:2n6t composition, Total: 0.2%
  C18:3n3 composition, Total: 0.19%
  C18:3n6 composition, Total: 0.76%
  C20:0 composition, Total: 0.08%
  C20:1n9 composition, Total: 0.27%
  C20:2n6 composition, Total: 0.32%
  C20:3n6 composition, Total: 15.2%
  C20:4n6 composition, Total: 3.01%
  C20:5n3 composition, Total: 0.09*** %
  C22:0 composition, Total: 0.11%
  C22:4n6 composition, Total: 0.07*** %
  C22:5n3 composition, Total: 0.09*** %
  C22:5n6 composition, Total: 0.08*** %
  C22:6n3 composition, Total: 3.22%
  C24:0 composition, Total: 0.06%
  C24:1n9 composition, Total: 0.23** %
Triglycerides, mean
  C14:0 concentration, Triglycerides: 26.7 µg/mL
  C16:0 concentration, Triglycerides: 135 µg/mL
  C16:1n7 concentration, Triglycerides: 6.2 µg/mL
  C16:1n7t concentration, Triglycerides: 0.7 µg/mL
  C18:0 concentration, Triglycerides: 80.4 µg/mL
  C18:1n9 concentration, Triglycerides: 161* μg mL^−1
  C18:1t concentration, Triglycerides: 6.1 µg/mL
  C18:2n6 concentration, Triglycerides: 42.6** μg mL^−1
  C18:2n6t concentration, Triglycerides: 9.0 µg/mL
  C18:3n3 concentration, Triglycerides: 1.8 µg/mL
  C18:3n6 concentration, Triglycerides: 0.7 µg/mL
  C20:0 concentration, Triglycerides: 1.6 µg/mL
  C20:1n9 concentration, Triglycerides: 5.6* μg mL^−1
  C20:2n6 concentration, Triglycerides: 1.7 µg/mL
  C20:3n6 concentration, Triglycerides: 8.3 µg/mL
  C20:4n6 concentration, Triglycerides: 2.5*** μg mL^−1
  C20:5n3 concentration, Triglycerides: 3.7** μg mL^−1
  C22:0 concentration, Triglycerides: 3.5 µg/mL
  C22:4n6 concentration, Triglycerides: 2.5* μg mL^−1
  C22:5n3 concentration, Triglycerides: 49.9* μg mL^−1
  C22:5n6 concentration, Triglycerides: 2.5 µg/mL
  C22:6n3 concentration, Triglycerides: 0.6** μg mL^−1
  C24:0 concentration, Triglycerides: 1.2 µg/mL
  C24:1n9 concentration, Triglycerides: 2.3 µg/mL
  Total fatty acids concentration, Triglycerides: 556* μg mL^−1
[3]
  C14:0 composition, Triglycerides: 4.77* %
  C16:0 composition, Triglycerides: 24.2%
  C16:1n7 composition, Triglycerides: 1.10%
  C16:1n7t composition, Triglycerides: 0.12%
  C18:0 composition, Triglycerides: 14.5%
  C18:1n9 composition, Triglycerides: 29.0%
  C18:1t composition, Triglycerides: 1.09%
  C18:2n6 composition, Triglycerides: 7.68** %
  C18:2n6t composition, Triglycerides: 1.64* %
  C18:3n3 composition, Triglycerides: 0.33%
  C18:3n6 composition, Triglycerides: 0.13%
  C20:0 composition, Triglycerides: 0.28%
  C20:1n9 composition, Triglycerides: 1.01%
  C20:2n6 composition, Triglycerides: 0.31%
  C20:3n6 composition, Triglycerides: 1.5%
  C20:4n6 composition, Triglycerides: 0.46*** %
  C20:5n3 composition, Triglycerides: 0.67%
  C22:0 composition, Triglycerides: 0.63%
  C22:4n6 composition, Triglycerides: 0.45%
  C22:5n3 composition, Triglycerides: 8.98*** %
  C22:5n6 composition, Triglycerides: 0.45* %
  C22:6n3 composition, Triglycerides: 0.12*** %
  C24:0 composition, Triglycerides: 0.23%
  C24:1n9 composition, Triglycerides: 0.41%
ratio, Cholesterol ester
  EPA/AA, Cholesterol ester (Table 5.5): 0.039*
  EPA/AA, Cholesterol ester (Table 5.6): 0.039*
ratio, Free fatty acids
  EPA/AA, Free fatty acids (Table 5.5): 2.94*
  EPA/AA, Free fatty acids (Table 5.6): 2.94*
ratio, Phospholipids
  EPA/AA, Phospholipids (Table 5.5): 0.038*
  EPA/AA, Phospholipids (Table 5.6): 0.038
ratio, Total lipids
  EPA/AA, Total (Table 5.5): 0.030**
  EPA/AA, Total (Table 5.6): 0.030**
ratio, Triglycerides
  EPA/AA, Triglycerides (Table 5.5): 1.51**
  EPA/AA, Triglycerides (Table 5.6): 1.51**
